Experiments:
Format in all cases: in vivo
[1] = tested on: Meloidogyne incognita infective stage juveniles (J2s); assay: Chemosensory (chemotaxis) assay towards root exudate, M. incognita J2s; details: for chemotaxis index (Cl) towards root exudate: M. incognita J2s
Method: (§1) Predicted uNLPs from both M. incognita and G. pallida were synthesised by EZBiolab and dissolved into pH adjusted ddH2O to make a 5 mM stock which was aliquoted and stored at −20° C. J2s of both M. incognita and G. pallida were incubated for 24 hours in 200 μl of each peptide in a 24 well plate (SPL Lifesciences, South Korea) at a defined concentration.
(§2) A 60 mm Petri dish was divided into two segments, a positive and a negative side, with a 0.5 cm ‘dead zone’ either side of the centre point. The petri dish was filled with 15 ml of 0.25% w/v agar which was allowed to solidify. 3 ml of 0.25% w/v agar slurry in spring water (pH 7, agitated with a magnetic stirrer for several hours to give a smooth consistency) was added to the petri dish and spread evenly over the surface. Root diffusate (attractant) and water only (control) 0.25% agar plugs were embedded in the agar slurry, either side of the assay arena. Root diffusate was collected from 10 tomato plants, aged 3-6 weeks in 1 litre pots, by pouring 500 ml of ddH2O through the soil three times. Diffusate from each plant was combined, filter sterilised and stored at 4° C. for a maximum of 1 month. Root diffusate agar plugs were made by melting 1.25% agar in ddH2O, cooling to 50° C. before mixing with 4 parts of root diffusate. The agar was then allowed to solidify at room temperature. 100 uNLP pre-treated M. incognita or G. pallida J2s were added by pipette to the centre of the plate. J2s which moved out of the ‘dead zone’ after 3 hours were counted and their location (+/−) scored. The distribution of J2s were used to create a chemotaxis index for each plate, which formed one replicate, a total of 10 replicates where completed for each uNLP treatment.

[2] = tested on: Globodera pallida infective stage juveniles (J2s); assay: Chemosensory (chemotaxis) assay towards root exudate, G. pallida J2s; details: 100 μM uNLP, 24 h, mean+/-SEM
Method: as §1, §2

[3] = tested on: Globodera pallida J2s; assay: B. subtilis and C. reinhardtii plant protection assay, G. pallida; details: tomato
Method: Tomato seeds were sterilised with 2.5% NaOCl for 15 minutes, washed 5 times in ddH2O and germinated on 0.5% Murashige and Skoog plates at 23° C. […] Invasion assays were performed by mixing 500 pre-treated M. incognita or G. pallida J2s with agar slurry and a single tomato seedling (2 days post germination) in a 6 well plate. Assays were left at 23° C. for 24 hours in the case of M. incognita and at 18° C. for 24 hours in the case of G. pallida under a 16 hour light and 8 hour darkness cycle. Seedlings were stained using acid fuschin [69] and the number of nematodes within the roots counted.
B. subtilis were grown overnight in LB media containing ampicillin (100 μg/ml) at 37° C. with shaking, and harvested in the log phase of growth determined by measuring OD600nm. Five ml of culture at 0.5 OD was spun down and the pellet mixed with 3 ml of agar slurry and 500 J2s from either G. pallida or M. incognita. C. reinhardtii clones were grown at 23° C. with shaking, cultures in the log phase were measured at OD750 and 5 ml of culture at 0.5 OD was pelleted by centrifugation. C. reinhardtii pellets were mixed with 3 ml of agar slurry and 500 J2s from either G. pallida or M. incognita. Plant invasion assays were performed as described above. […]

[4] = tested on: mixed-stage Caenorhabditis elegans; assay: C. elegans chemotaxis assay (non-target nematode); details: 100 μM, 24 h, no statistically significant impact
Method: C. elegans wild-type N2 Bristol strain were obtained from the C. elegans Genomics Center and maintained on a Escherichia coli (strain OP50) lawn on nematode growth medium (NGM) agar plates (3 g/l NaCl, 17 g/l agar, 2.5 g/l peptone, 5 mg/l cholesterol, 25 mM KH2PO4 (pH 6.0), 1 mM CaCl2, 1 mM MgSO4) at 20° C.. Chemotaxis assays were performed in a 9 cm diameter Petri dish on NGM agar which was split into a positive and negative side with a central ‘dead zone’ of 1.5 cm diameter. 100 mixed-staged C. elegans were washed three times in M9 buffer and soaked in 100 μM PPN uNLP, or M9 vehicle control for 24 hours. 2 μl of 50 mM sodium acetate, 0.5% pyrazine, 0.5% benzaldehyde or 0.5% diacetyl was spotted onto the positive side, 2 μl of ddH2O was spotted onto the negative side. Pyrazine, benzaldehyde and diacetyl volatile attractants were assayed immediately whereas the water soluble sodium acetate was assayed 18 hours following addition to the plate. Assays were maintained in the dark at 20° C., and counted after 1 hour.

SFDSFTGPGFTGLD [Mi-NLP-15b]
chemotaxis index (Cl) towards root exudate ([1]; 100 μM uNLP, 24 h, mean+/-SEM): −0.3408+/−0.2207 | chemotaxis index (Cl) towards root exudate ([1]; Mi-NLP-15b 100 pM, 24 h): 0.03117+/−0.1594 | chemotaxis index (Cl) towards root exudate ([1]; Mi-NLP-15b 1 nM, 24 h): −0.07105+/−0.1534 | chemotaxis index (Cl) towards root exudate ([1]; Mi-NLP-15b 10 nM, 24 h): −0.1741+/−0.1724 | chemotaxis index (Cl) towards root exudate ([1]; Mi-NLP-15b 100 nM, 24 h): −0.1195+/−0.1968 | chemotaxis index (Cl) towards root exudate ([1]; Mi-NLP-15b 1 μM, 24 h): −0.1344+/−0.1733 | chemotaxis index (Cl) towards root exudate ([1]; Mi-NLP-15b 10 μM as printed (last of the series, after 100 pM), 24 h): −0.1553+/−0.2642 | chemotaxis index (Cl) towards root exudate ([1]; Mi-NLP-15b 10 μM, 24 h (dilution series)): −0.03579+/−0.1504 | chemotaxis index (Cl) towards root exudate ([1]; Mi-NLP-15b 100 μM, 24 h (dilution series)): −0.3782+/−0.07224 | lowest concentration inhibiting M. incognita chemosensation ([1]; serial dilution, 24 h exposure): 10 pM | chemotaxis index (Cl) towards root exudate [2]: −0.04762+/−0.1983 | G. pallida invasion relative to control groups ([3]; B. subtilis secreting the uNLP): 51.98%+/−13.29 | G. pallida invasion relative to controls ([3]; C. reinhardtii expressing the uNLP): 30.95%+/−9.021 | chemotaxis index (Cl) towards sodium acetate ([4]; control 0.4269): 0.3142+/−0.039 | chemotaxis index (Cl) towards pyrazine ([4]; control 0.4904): 0.4959+/−0.089 | chemotaxis index (Cl) towards diacetyl ([4]; control 0.6638): 0.6640+/−0.126 | chemotaxis index (Cl) towards benzaldehyde ([4]; control 0.7026): 0.7032+/−0.075
